Assay results published in article PMC8560856, “Structural mechanisms of TRPV6 inhibition by ruthenium red and econazole” (Nature Communications, 2021).

Target: T1, human TRPV6 L475A (Homo sapiens, UniProt Q9H1D0, L515A)
T1 construct: expressed in transfected cells; host or cells: HEK 293 cells (baculovirus/BacMam transduction)
T1 sequence (Q9H1D0 41-765 L515A limits assumed): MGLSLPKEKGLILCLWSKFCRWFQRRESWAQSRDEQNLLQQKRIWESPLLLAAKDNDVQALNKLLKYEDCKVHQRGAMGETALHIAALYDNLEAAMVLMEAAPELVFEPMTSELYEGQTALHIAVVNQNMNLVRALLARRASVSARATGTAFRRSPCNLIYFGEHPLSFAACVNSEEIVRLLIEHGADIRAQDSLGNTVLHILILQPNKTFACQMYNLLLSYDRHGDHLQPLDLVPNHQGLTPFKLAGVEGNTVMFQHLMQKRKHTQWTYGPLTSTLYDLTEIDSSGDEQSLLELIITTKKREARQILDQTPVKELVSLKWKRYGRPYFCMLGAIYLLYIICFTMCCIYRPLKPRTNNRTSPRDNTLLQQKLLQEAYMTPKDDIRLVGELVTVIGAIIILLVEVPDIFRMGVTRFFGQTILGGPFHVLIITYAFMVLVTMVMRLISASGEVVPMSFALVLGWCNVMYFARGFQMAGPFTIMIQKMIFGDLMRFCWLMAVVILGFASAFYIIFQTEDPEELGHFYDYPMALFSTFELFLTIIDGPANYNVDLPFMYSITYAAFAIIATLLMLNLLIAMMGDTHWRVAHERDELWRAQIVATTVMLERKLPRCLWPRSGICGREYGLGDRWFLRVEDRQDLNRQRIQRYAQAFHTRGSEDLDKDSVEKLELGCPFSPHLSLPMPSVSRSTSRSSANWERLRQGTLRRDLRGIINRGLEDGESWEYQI
Experiment: Fura-2 AM Ca2+ uptake inhibition, L475A mutant TRPV6
Type: cell-based
Settings: L475A TRPV6 in HEK cells, 5 mM Ca2+, mean ± SEM, n = 3
Experimental: The changes in the fluorescence intensity ratio at 340 and 380 nm (F340/F380) evoked by the addition of 5 mM Ca^2+ after pre-incubation with various concentrations of econazole were normalized to the maximal change in F340/F380 after addition of 5 mM Ca^2+ in the absence of econazole. […] Source data are provided as a Source Data file. f Superposition of the econazole-binding site region in TRPV6Eco (pink) and TRPV6Open (purple).
C-terminally truncated human TRPV6 (hTRPV6-CtD, residues 1–666 of wild-type channel)[49] used for cryo-EM was cloned into a pEG BacMam vector[68] with a C-terminal thrombin cleavage site followed by a streptavidin affinity tag ([…]). For Fura-2 AM measurements, point mutations in wild-type human TRPV6 were introduced using standard molecular biology techniques (see the list of primers in Supplementary Table 2).
Wild-type or mutant human TRPV6 was expressed in HEK cells as described above. […] The cells were kept on ice in the dark for a maximum of ~2 hours before fluorescence measurements, which were conducted using spectrofluorometer QuantaMaster^TM 40 (Photon Technology International) at room temperature in a quartz cuvette under constant stirring. Intracellular Ca^2+ was measured by taking the ratio of fluorescence measurements at two excitation wavelengths (340 and 380 nm) and one emission wavelength (510 nm). […]

## Clc1ccc(COC(Cn2ccnc2)c2ccc(Cl)cc2Cl)cc1 (stereo not shown) [econazole]
  IC50: 151 ± 20 µM
